# Assay results taken from ChEMBL document CHEMBL3045041, “Synthesis of novel aryl(4-substituted pyridin-3-yl)methyl carbamates and their herbicidal activity” (J Pestic Sci, 2012).
# Columns and labels:
# [1] = system: Schoenoplectiella juncoides; experiment: Herbicidal activity against Schoenoplectiella juncoides compound treated at 0.5-leaf stage measured after 26 days by outdoor concrete pot test; format: functional
# [2] = system: Oryza sativa; experiment: Phytotoxicity against Oryza sativa cv. Kinuhikari (rice) planted at 3 cm depth measured after 26 days; format: organism-based; settings: in vivo, 624 h
# [3] = system: Echinochloa oryzicola; experiment: Herbicidal activity against Echinochloa oryzicola compound treated at emergence stage measured after 26 days by outdoor concrete pot test; format: functional
# [4] = system: Echinochloa oryzicola; experiment: Herbicidal activity against Echinochloa oryzicola compound treated at 2.5-leaf stage measured after 26 days by outdoor concrete pot test; format: functional
# [5] = system: Lindernia procumbens; experiment: Herbicidal activity against Lindernia procumbens compound treated at 1 to 2.2-leaf stage measured after 26 days by outdoor concrete pot test; format: functional
# [6] = system: Pontederia vaginalis; experiment: Herbicidal activity against Monochoria vaginalis compound treated at 1.5-leaf stage measured after 26 days by outdoor concrete pot test; format: functional
# [7] = system: Elatine triandra; experiment: Herbicidal activity against Elatine triandra compound treated at 1 to 2.2-leaf stage measured after 26 days by outdoor concrete pot test; format: functional
# [8] = system: Rotala indica; experiment: Herbicidal activity against Rotala indica compound treated at 1 to 2.2-leaf stage measured after 26 days by outdoor concrete pot test; format: functional
# [9] = system: Schoenoplectiella juncoides; experiment: Herbicidal activity against Schoenoplectiella juncoides at 300 g a.i/ha treated at 2.3-leaf stage measured after 26 days by outdoor concrete pot test; format: functional
# [10] = system: Echinochloa oryzicola; experiment: Herbicidal activity against Echinochloa oryzicola at 300 g a.i/ha treated at 1.6-leaf stage measured after 26 days by outdoor concrete pot test; format: functional
# [11] = system: Pontederia vaginalis; experiment: Herbicidal activity against Monochoria vaginalis at 300 g a.i/ha treated at 2.3-leaf stage measured after 26 days by outdoor concrete pot test; format: functional
# [12] = system: Elatine triandra; experiment: Herbicidal activity against Elatine triandra at 300 g a.i/ha treated at 1.6-leaf stage measured after 26 days by outdoor concrete pot test; format: functional
# [13] = system: Lindernia procumbens; experiment: Herbicidal activity against Lindernia procumbens at 300 g a.i/ha treated at 2.3-leaf stage measured after 26 days by outdoor concrete pot test; format: functional
# [14] = system: Pontederia vaginalis; experiment: Herbicidal activity against Monochoria vaginalis at 300 g a.i/ha treated at 1.6-leaf stage measured after 26 days by outdoor concrete pot test; format: functional
# [15] = system: Oryza sativa; experiment: Phytotoxicity against Oryza sativa cv. Kinuhikari (rice) at 300 g a.i/ha treated at 2.3-leaf stage measured after 26 days by outdoor concrete pot test; format: organism-based; settings: in vivo, other, 624 h
# [16] = system: Rotala indica; experiment: Herbicidal activity against Rotala indica at 300 g a.i/ha treated at 2.3-leaf stage measured after 26 days by outdoor concrete pot test; format: functional
# [17] = system: Schoenoplectiella juncoides; experiment: Herbicidal activity against Schoenoplectiella juncoides at 300 g a.i/ha treated at 1.6-leaf stage measured after 26 days by outdoor concrete pot test; format: functional
# [18] = system: Rotala indica; experiment: Herbicidal activity against Rotala indica at 300 g a.i/ha treated at 1.6-leaf stage measured after 26 days by outdoor concrete pot test; format: functional
# [19] = system: Echinochloa oryzicola; experiment: Herbicidal activity against Echinochloa oryzicola at 300 g a.i/ha treated at 2.3-leaf stage measured after 26 days by outdoor concrete pot test; format: functional
# [20] = system: Lindernia procumbens; experiment: Herbicidal activity against Lindernia procumbens at 300 g a.i/ha treated at 1.6-leaf stage measured after 26 days by outdoor concrete pot test; format: functional
# [21] = system: Elatine triandra; experiment: Herbicidal activity against Elatine triandra at 300 g a.i/ha treated at 2.3-leaf stage measured after 26 days by outdoor concrete pot test; format: functional
smiles,measurement,setting,value
"CN(C)C(=O)OC(c1cnccc1C(F)(F)F)c1cccc2ccccc12 (single isomer, unassigned; (+))",ED80,[1],>500 gAi/ha
same,ED20,[2],1000 gAi/ha
same,ED80,[3],125 gAi/ha
"CN(C)C(=O)OC(c1cnccc1C(F)(F)F)c1cccc2ccccc12 (single isomer, unassigned; (-))",ED80,[4],<63 gAi/ha
same,ED80,[5],<63 gAi/ha
same,ED80,[6],<100 gAi/ha
same,ED80,[1],125 gAi/ha
same,ED20,[2],500 gAi/ha
same,ED80,[7],<63 gAi/ha
same,ED80,[3],<31 gAi/ha
same,ED80,[8],<63 gAi/ha
CCN(CC)C(=O)n1cnc(S(=O)(=O)c2c(C)cc(C)cc2C)n1 [CAFENSTROLE],Efficacy,[9],0%
same,Efficacy,[10],100%
same,Efficacy,[11],0%
same,Efficacy,[12],100%
same,Efficacy,[13],99%
same,Efficacy,[14],50%
same,Efficacy,[15],0%
same,Efficacy,[16],99%
same,Efficacy,[17],0%
same,Efficacy,[18],100%
same,Efficacy,[19],95%
same,Efficacy,[20],100%
same,Efficacy,[21],99%
